These results are taken from paper PMC8286840, “Identifying SARS-CoV-2 antiviral compounds by screening for small molecule inhibitors of Nsp3 papain-like protease” (Biochemical Journal, 2021).

Structures can show the parent of a compound that is named as a salt. Where two headings read alike, the source gives them in different places.

In test [1] the target is T1, SARS-CoV-2 PLpro (nsp3 1564–1878) (Severe acute respiratory syndrome coronavirus 2, UniProt P0DTD1). In words: biochemical. Also noted: FRET-quenched peptide (Pro3) cleavage by PLpro, 10 min pre-incubation, slope over 20 min, normalised to no-compound control. The following applies: low concentration screen, read-out: % of control remaining.
Test [2] concerns the target T1, SARS-CoV-2 PLpro (nsp3 1564–1878). In words: biochemical. The following applies: high concentration screen, read-out: % of control remaining. Also noted: FRET-quenched peptide (Pro3) cleavage by PLpro, 10 min pre-incubation, slope over 20 min, normalised to no-compound control.

Regarding `NC(=O)C(c1ccccc1)(c1ccccc1)[C@@H]1CCN(CCc2ccc3c(c2)CCO3)C1` [Darifenacin HBr], in test [1] (Well no.=5361), the remaining activity at 1.25 µM is 104%. Also, the remaining activity at 3.75 µM in test [2] (Well no.=5361) was 97.1%.
Take `CC(C)CN(C[C@@H](O)[C@H](Cc1ccccc1)NC(=O)O[C@H]1CO[C@H]2OCC[C@H]21)S(=O)(=O)c1ccc(N)cc1` [Darunavir (Ethanolate)]: the remaining activity at 1.25 µM in test [1] (Well no.=8504) came out at 98.9%. Besides, the remaining activity at 3.75 µM in test [2] (Well no.=8504) came out at 90.4%.
For the compound `CC(C)CN(C[C@@H](O)[C@H](Cc1ccccc1)NC(=O)O[C@H]1CO[C@H]2OCC[C@H]21)S(=O)(=O)c1ccc(N)cc1` [Darunavir Ethanolate], the remaining activity at 1.25 µM in test [1] (Well no.=8284) worked out at 90.9%. Also, the remaining activity at 3.75 µM in test [2] (Well no.=8284) was found to be 94.1%.
As to `CC(C)CN(C[C@@H](O)[C@H](Cc1ccccc1)NC(=O)O[C@H]1CO[C@H]2OCC[C@H]21)S(=O)(=O)c1ccc(N)cc1` [Darunavir], the remaining activity at 1.25 µM in test [1] (Well no.=7318) turned out to be 108%. Moreover, the remaining activity at 3.75 µM in test [2] (Well no.=7318) turned out to be 108%.
For the compound `Cc1nc(Nc2ncc(C(=O)Nc3c(C)cccc3Cl)s2)cc(N2CCN(CCO)CC2)n1` [Dasatinib], the remaining activity at 1.25 µM in test [1] (Well no.=2933) stood at 101%. Moreover, the remaining activity at 3.75 µM in test [2] (Well no.=2933) was determined as 97.3%.
Turning to `O=c1c(O)c(-c2ccccc2O)oc2cc(O)cc(O)c12` [Datiscetin], the remaining activity at 1.25 µM in test [1] (Well no.=3251) turned out to be 95.3%. Further, the remaining activity at 3.75 µM in test [2] (Well no.=3251) stood at 96.6%.
Take `COc1cccc2c1C(=O)c1c(O)c3c(c(O)c1C2=O)C[C@@](O)(C(C)=O)C[C@@H]3O[C@H]1C[C@H](N)[C@H](O)[C@H](C)O1` [Daunorubicin hydrochloride]: the remaining activity at 1.25 µM in test [1] (Well no.=728) is 94%. Further, the remaining activity at 3.75 µM in test [2] (Well no.=728) came out at 94.8%.
On to `COc1cccc2c1C(=O)c1c(O)c3c(c(O)c1C2=O)C[C@@](O)(C(C)=O)C[C@@H]3O[C@H]1C[C@H](N)[C@H](O)[C@H](C)O1` [Daunorubicin], for which the remaining activity at 1.25 µM in test [1] (Well no.=1708) stood at 96.8%; in test [1] (Well no.=3221) it was 103%. Besides, the remaining activity at 3.75 µM in test [2] (Well no.=1708) was found to be 97.4%; in test [2] (Well no.=3221), 104%.
`N=C(N)N1CCc2ccccc2C1` [Debrisoquin sulfate]: in test [1] (Well no.=397), the remaining activity at 1.25 µM turned out to be 103%. For the same compound, in test [2] (Well no.=397), the remaining activity at 3.75 µM amounted to 104%.
In the case of `N=C(N)N1CCc2ccccc2C1` [Debrisoquin], in test [1] (Well no.=1905), the remaining activity at 1.25 µM came to 99.9%. In addition, the remaining activity at 3.75 µM in test [2] (Well no.=1905) was found to be 99.9%.
Consider `C[N+](C)(C)CCCCCCCCCC[N+](C)(C)C` [Decamethonium dibromide], for which the remaining activity at 1.25 µM in test [1] (Well no.=683) was 94%. Further, the remaining activity at 3.75 µM in test [2] (Well no.=683) amounted to 95.4%.
Regarding `C[N+](C)(C)CCCCCCCCCC[N+](C)(C)C` [Decamethonium], in test [1] (Well no.=1554), the remaining activity at 1.25 µM was found to be 97.2%. For the same compound, the remaining activity at 3.75 µM in test [2] (Well no.=1554) was found to be 100%.
In the case of `O=C(O)CCCCCCCCC(=O)O` [Decanedioic acid], in test [1] (Well no.=6453), the remaining activity at 1.25 µM amounted to 93%. In addition, the remaining activity at 3.75 µM in test [2] (Well no.=6453) came out at 95.8%.
Regarding `CCCCCCCCCC(=O)O` [Decanoic acid], the remaining activity at 1.25 µM is 93.6% in test [1] (Well no.=4540) and 105% in test [1] (Well no.=6973). In addition, the remaining activity at 3.75 µM in test [2] (Well no.=4540) stood at 95.8%; in test [2] (Well no.=6973), 107%.
Take `Nc1ncn([C@H]2C[C@H](O)[C@@H](CO)O2)c(=O)n1` [Decitabine]: in test [1] (Well no.=5103), the remaining activity at 1.25 µM came out at 102%. In test [2] (Well no.=5103), the remaining activity at 3.75 µM turned out to be 99.8%.
For the compound `OCCOCCN1CCN(C(c2ccccc2)c2ccccc2)CC1` [Decloxizine (dihydrochloride)], in test [1] (Well no.=8189), the remaining activity at 1.25 µM amounted to 102%. The remaining activity at 3.75 µM in test [2] (Well no.=8189) amounted to 103%.
Turning to `C=C1O[C@@](CO)(n2cnc3c(N)ncnc32)[C@H](O)[C@@H]1O` [Decoyinine], in test [1] (Well no.=3223), the remaining activity at 1.25 µM stood at 100%. Also, the remaining activity at 3.75 µM in test [2] (Well no.=3223) was 104%.
For `CCCCCCCCCCC1=C(C)C(=O)C(OC)=C(OC)C1=O` [Decylubiquinone], the remaining activity at 1.25 µM in test [1] (Well no.=3245) came out at 100%. Besides, in test [2] (Well no.=3245), the remaining activity at 3.75 µM worked out at 99.1%.
On to `O=C(O)c1ccc(-n2nc(-c3ccccc3O)nc2-c2ccccc2O)cc1` [Deferasirox], for which the remaining activity at 1.25 µM in test [1] (Well no.=8190) amounted to 107%. Besides, in test [2] (Well no.=8190), the remaining activity at 3.75 µM is 100%.
As for `Cc1c(O)c(=O)ccn1C` [Deferiprone], the remaining activity at 1.25 µM in test [1] (Well no.=5130) came to 97.3%. For the same compound, in test [2] (Well no.=5130), the remaining activity at 3.75 µM was 98.7%.
Regarding `CC(=O)OCC(=O)[C@@]12N=C(C)O[C@@H]1C[C@H]1[C@@H]3CCC4=CC(=O)C=C[C@]4(C)[C@H]3[C@@H](O)C[C@@]12C` [Deflazacort], the remaining activity at 1.25 µM in test [1] (Well no.=5566) was determined as 103%; in test [1] (Well no.=7613), 102%. The remaining activity at 3.75 µM in test [2] (Well no.=5566) was 104%; in test [2] (Well no.=7613) it was 97.5%.
Regarding `C[C@H](CCC(=O)O)[C@H]1CC[C@H]2[C@@H]3C(=O)C[C@@H]4CC(=O)CC[C@]4(C)[C@H]3CC(=O)[C@]12C` [Dehydrocholic acid], the remaining activity at 1.25 µM in test [1] (Well no.=8300) was 100%. Also, the remaining activity at 3.75 µM in test [2] (Well no.=8300) turned out to be 99%.
As for `C=C1CC[C@H]2C(=C)CC[C@H]3C(=C)C(=O)O[C@@H]3[C@@H]12` [Dehydrocostus lactone], the remaining activity at 1.25 µM in test [1] (Well no.=3206) stood at 101%. The remaining activity at 3.75 µM in test [2] (Well no.=3206) is 100%.
As for `C[C@]12CC[C@H](O)CC1=CC[C@@H]1[C@@H]2CC[C@]2(C)C(=O)CC[C@@H]12` [Dehydroepiandrosterone], the remaining activity at 1.25 µM in test [1] (Well no.=1972) came to 94.1%. The remaining activity at 3.75 µM in test [2] (Well no.=1972) is 98.4%.
For the compound `CC(C)Nc1cccnc1N1CCN(C(=O)c2cc3cc(NS(C)(=O)=O)ccc3[nH]2)CC1` [Delavirdine mesylate], the remaining activity at 1.25 µM in test [1] (Well no.=1676) stood at 108%. Moreover, the remaining activity at 3.75 µM in test [2] (Well no.=1676) is 101%.
In the case of `CCN1C[C@]2(COC)CC[C@H](OC)[C@@]34C1[C@]1(OCO[C@@]15C[C@H](OC)[C@H]1C[C@@H]3[C@@H]5[C@H]1OC)[C@@H](O)[C@H]24` [Delcorine], in test [1] (Well no.=3109), the remaining activity at 1.25 µM turned out to be 98.2%. Also, in test [2] (Well no.=3109), the remaining activity at 3.75 µM worked out at 101%.
Consider `CCN1C[C@]2(C)CC[C@H](OC)[C@@]34C1[C@]1(OCO[C@@]15C[C@H](OC)[C@H]1C[C@]3(O)[C@@H]5[C@H]1OC)[C@@H](OC(C)=O)[C@H]24` [Deltaline], for which, in test [1] (Well no.=3111), the remaining activity at 1.25 µM came to 101%. The remaining activity at 3.75 µM in test [2] (Well no.=3111) was determined as 103%.
For `c1ccc(Cn2c(-c3ccc(OC[C@H](C4CCNCC4)n4c(-c5ccccc5)nc5ccccc54)cc3)nc3ccccc32)cc1` [Deltarasin], the remaining activity at 1.25 µM in test [1] (Well no.=8476) was found to be 95.2%. Moreover, the remaining activity at 3.75 µM in test [2] (Well no.=8476) came to 92.7%.
Take `CN(C)[C@@H]1C(O)=C(C(N)=O)C(=O)[C@@]2(O)C(O)=C3C(=O)c4c(O)ccc(Cl)c4[C@@H](O)[C@H]3C[C@@H]12` [Demeclocycline hydrochloride]: in test [1] (Well no.=484), the remaining activity at 1.25 µM was found to be 99.1%. For the same compound, the remaining activity at 3.75 µM in test [2] (Well no.=484) turned out to be 96.9%.
